pIC50: −log10 of the molar value.

As usually defined, the pIC50 is the negative decadic logarithm of the IC50, by convention in mol/L.

The experiment deals with T1, human CXCR2 receptor (Homo sapiens, UniProt P25025).
T1 construct: purchased Biosignal Packard Inc; host or cells: CHO-K1 membranes
T1 sequence (P25025 1-360): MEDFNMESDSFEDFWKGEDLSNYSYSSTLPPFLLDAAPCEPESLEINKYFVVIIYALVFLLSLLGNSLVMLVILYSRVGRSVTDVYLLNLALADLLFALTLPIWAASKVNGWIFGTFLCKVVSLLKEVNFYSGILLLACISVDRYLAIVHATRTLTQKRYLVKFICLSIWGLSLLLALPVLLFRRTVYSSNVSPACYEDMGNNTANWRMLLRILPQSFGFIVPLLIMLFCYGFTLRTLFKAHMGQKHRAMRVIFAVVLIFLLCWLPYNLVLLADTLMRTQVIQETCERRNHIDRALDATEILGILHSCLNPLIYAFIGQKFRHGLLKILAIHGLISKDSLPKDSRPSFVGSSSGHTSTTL
The experiment is described as follows: [35S]-GTPγS binding assay for human CXCR2 receptor using SPA technology. As to conditions: CHO-K1 membranes expressing human CXCR2; 100 nM IL-8; read-out: IC50 in the [35S]-GPTγS binding assay. In kind it is biochemical. An excerpt: [^35S]-GTPγS Binding Assay for Human CXCR2 Receptor using SPA Technology
[^35S]-GTPγS (with specific activity 1082 Ci/mmol) and wheat germ agglutinin poly vinyl toluene scintillation proximity beads are purchased from Amersham Pharmacia Biotech. The Chinese hamster ovary cell (CHO-K1) membranes expressing human CXCR2 receptors are purchased from Biosignal Packard Inc. All other chemicals are of analytical grade. White non-binding surface 96 well Optiplate™ microplates are obtained from Packard. Recombinant human IL-8 is synthesised, cloned and expressed in Escherichia coli as described previously (Lindley I, et al., Proc. Natl. Acad. Sci., 1988, 85(23):9199). The assay is performed in duplicate in 96 well Optiplate™ microplate in a final volume of 250 μl per well. Compounds are diluted in DMSO (0.5% final concentration) and incubated in 20 mM HEPES buffer pH 7.4 containing 10 mM MgCl2, 100 mM NaCl, 1 mM EDTA plus 100 nM IL-8, 50 μM GDP and […] [^35S]GTPγS per well. SPA beads (1 mg/well final concentration) were pre-mixed with the membranes (10 μg/well final concentration) in assay buffer: 20 mM HEPES buffer pH 7.4 containing 10 mM MgCl2, 100 mM NaCl, 1 mM EDTA. […] The plate is centrifuged and read on Packard TopCount™ scintillation counter, program [^35S dpm] for 1 min/well. Data are expressed as the % response to 100 nM IL-8 minus basal.
(GTPγS is a poorly hydrolysed GTP analogue; its binding reports G protein activation.)

For `CCC1CCCN1C(=O)C1CC1c1nc(SCc2cccc(F)c2F)nc(O)c1C#N` (centres unmarked) [Example 43, 2-(2,3-Difluoro-benzylsulfanyl)-4-[2-(2-ethyl-pyrrolidine-1carbonyl)-cyclopropyl]-6-hydroxypyrimidine-5-carbonitrile], the pIC50 was 6.64.

For the molecule `CCOC(=O)CNC(=O)[C@@H]1C[C@H]1c1nc(SCc2cccc(F)c2F)nc(O)c1C#N` (relative stereo) [Example 49, Trans-({2-[5-Cyano-2-(2,3-difluoro-benzylsulfanyl)-6-hydroxy-pyrimidin-4-yl]-cyclopropanecarbonyl}-amino)-acetic acid ethyl ester], the pIC50 was 6.09.

The values above are taken from US20100063080A1, “CXCR2 inhibitors” (priority 2006, published 2010).
